Assays:
Type in all cases: in vivo
[1] = system: Housefly [Musca domestica]; test: Housefly insecticidal test (HF); conditions: per 25 female houseflies, 48 hours
[2] = system: Tobacco Budworm [Heliothis virescens (Fabricius)]; test: Tobacco budworm contact test (TBW-C); conditions: second-instar larvae, 5 days, percent in solution
How it was run: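 Cotton cotyledons dipped 2–3 s in compound in 50:50 acetone–water, dried, then infested with 5 second-instar larvae and held 5 days at high humidity before scoring mortality.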

[3] = system: Tobacco Budworm [Heliothis virescens (Fabricius)] eggs; test: Tobacco budworm egg test (TBW-E); conditions: percent in solution
[4] = system: Beet Armyworm (Spodoptera exigua); test: Beet armyworm test (BAW)
Method: (§1) The compounds in Tables 1 and 2 above were tested for insecticidal activity using the following testing procedures. LC50 values, based on the results of these tests and calculated according to dosage-mortality curves, are expressed in Table 3.
Beet Armyworm (Spodoptera exigua)
Test compounds were diluted in a 50-50 acetone-water solution. Young leaves of sugar beets (Beta vulgaris) were immersed in the test solutions for 2-3 seconds and placed on a wire screen to dry. The dried leaves were placed in petri dishes containing a moistened filter paper and infested with five second-instar beet armyworm larvae. The dishes were placed in a high humidity chamber. Mortality of the larvae was recorded five days later. Test concentrations ranged from 0.1% downward. The LC-50 values are expressed below in Table 3 under the heading "BAW" in terms of percent of the test compound in solution.

[5] = system: Cabbage Looper [Trichoplusia ni (Hubner)]; test: Cabbage looper test (CL); conditions: second-instar larvae, 3-5 days, percent in solution
[6] = system: Aster Leafhopper [Macrosteles fascifrens (Stal)]; test: Aster leafhopper test (LH); conditions: adults/nymphs, 48 hours, percent in solution
[7] = system: Maize weevil [Sitophilus Zeamais (Motschulsky)]; test: Maize weevil test (MW); conditions: adult weevils, treated corn seeds, 48 hours, percent in solution
How it was run: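 Adult weevils (10) were placed with four corn seeds that had been dipped 2-3 s in compound dissolved in 50:50 acetone:water, then dried, and held at about 25° C. Mortality was scored at 48 h. LC50 was taken from dosage-mortality curves and expressed as percent compound in solution, from a 0.01% top concentration.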

[8] = system: Rice water weevil [Lissorhoptrus oryzophilus (Kuschel)]; test: Rice water weevil test (RWW); conditions: per weevil, topical, female adults, 48 hours
Method: as §1
Rice water weevil [Lissorhoptrus oryzophilus (Kuschel)]
Test compounds were diluted in acetone. Droplets (1 ul) of test solutions were applied to the ventral abdomens of ten female adult weevils. The treated weevils were placed in containers with wet cotton balls and rice foliage. The containers were covered and kept at a temperature of about 25° C. Mortality was recorded after 48 hours. […] The LC50 values are expressed below in Table 3 under the heading "RWW" in terms of μg of test compound per weevil.

[9] = second-instar larvae, five days, percent in solution

Row | Compound | LC50 HF [1] [µg] | LC50 TBW C [2] [%] | LC50 TBW E [3] [%] | LC50 BAW [4, 9] [%] | LC50 CL [5] [%] | LC50 LH [6] [%] | LC50 MW [7] [%] | LC50 BAW ([4]; 120 h) [%] | LC50 RWW [8] [µg]
1 | FC(F)(F)c1ccc(N=C(OCc2cccc(Oc3ccccc3)c2)C(Cl)Cl)cc1 [Compound 61] | 29 | 0.03 | 0.03 | 0.002 | 0.001 | > 0.05 | > 0.01 |  | 
2 | FC(F)(F)c1ccc(N=C(OCc2cccc(Oc3ccccc3)c2)C2CC2)cc1 [Compound 62] | 20 | 0.0015 | 0.025 |  | 0.005 | > 0.05 | > 0.01 | 0.02 | 
3 | FC(F)(F)Oc1ccc(N=C(OCc2cccc(Oc3ccccc3)c2)C2CC2)cc1 [Compound 63] | 30 | 0.001 | 0.05 |  | 0.005 | 0.0001 | > 0.01 | 0.005 | 
4 | FC(F)(F)Oc1ccc(N=C(OCc2cccc(Oc3ccccc3)c2)C(Cl)Cl)cc1 [Compound 64] | 11 | 0.1 | 0.03 | 0.0025 | 0.0025 | > 0.05 | > 0.01 |  | 
5 | CC(C)C(=Nc1cc(F)cc(C(F)(F)F)c1)OCc1cccc(Oc2ccccc2)c1 [Compound 77] | 10 | 0.0004 | 0.03 |  | 0.0005 | 0.0002 | > 0.01 | 0.0004 | 
6 | Fc1ccc(N=C(OCc2cccc(Oc3ccccc3)c2)C2CC2)cc1Cl [Compound 113] | 15 |  | 0.1 |  | 0.005 |  |  |  | > 2.5
7 | CC(C)C(=Nc1ccc(C(C)C)cc1)OCc1cccc(Oc2ccccc2)c1 [Compound 144] | 100 | 0.006 | 0.05 | > 0.01 | 0.002 | 0.0006 | > 0.01 |  | 
8 | CC(C)C(=Nc1ccc2c(c1)OCO2)OCc1cccc(Oc2ccc(F)cc2)c1 [Compound 176] | 1.8 | 0.002 | 0.05 | 0.0035 | 0.0005 | > 0.05 | 0.009 |  | 
9 | CC(C)C(=Nc1ccc(F)c(Cl)c1)OCc1cc(Oc2ccc(F)cc2)ccc1F [Compound 230] | 36 |  | 0.1 |  | 0.0004 |  | 0.038 |  | > 2.5
10 | CC(C)C(=Nc1ccc(F)c(Br)c1)OCc1cccc(Oc2ccccc2)c1 [Compound 254] | 6 |  | 0.026 |  | 0.001 |  |  |  | > 2.5
11 | CC(C)C(=Nc1ccc(F)c(Cl)c1)OCc1cccc(Oc2ccc(F)cc2)c1F [Compound 262] | 26 |  | > 0.1 |  | 0.0004 |  | 0.005 |  | > 2.5
12 | CC(C)C(=Nc1cccc(C(F)(F)F)c1)OCc1ccc(F)c(Oc2ccc(F)cc2)c1 [Compound 268] | 4 | 0.0005 | 0.023 | 0.001 | 0.000025 | 0.0005 | > 0.01 |  | 
13 | CC(C)C(=Nc1cccc(Cl)c1)OCc1cccc(Oc2ccc(Cl)cc2)c1 [Compound 270] | 12 | > 0.0015 | > 0.01 | 0.005 | 0.00025 | 0.003 | > 0.01 |  | 
14 | CC(C)C(=Nc1cccc(I)c1)OCc1ccc(F)c(Oc2ccc(F)cc2)c1 [Compound 279] | 4 | 0.007 | 0.016 | 0.0025 | 0.00008 | 0.0003 | > 0.01 |  | 
15 | CC(C)(F)C(=Nc1ccc(F)c(Cl)c1)OCc1ccc(F)c(Oc2ccc(F)cc2)c1 [Compound 310] | 4.5 |  | 0.015 |  | 0.00006 |  |  |  | > 2.5
16 | CC(C)C(=Nc1ccc(C(F)(F)F)cc1)OCc1ccc(F)c(Oc2ccc(F)cc2)c1 [Compound 314] | 21 |  | 0.012 |  | 0.00005 |  |  |  | 0.11
17 | CC(C)C(=Nc1ccc(OC(F)(F)F)cc1)OCc1ccc(F)c(Oc2ccc(F)c(F)c2)c1 [Compound 347] | 30 | 0.0001 | > 0.1 | 0.00075 | 0.000075 | 0.0002 | > 0.01 |  | 
18 | CC(C)C(=Nc1ccc(F)c(F)c1F)OCc1cccc(Oc2ccc(F)cc2)c1 [Compound 348] | 8 | 0.00075 | > 0.1 | > 0.1 | 0.0002 | 0.05 | > 0.01 |  | 
19 | CCOc1ccc(N=C(OCc2ccc(F)c(Oc3ccc(Cl)cc3)c2)C(C)C)cc1Cl [Compound 369] | > 100 |  | > 0.1 |  | 0.0016 |  | > 0.01 |  | > 2.5
20 | CCOc1ccc(N=C(OCc2ccc(F)c(Oc3ccccc3)c2)C(C)C)cc1Cl [Compound 370] | < 100 |  | 0.02 |  | 0.00034 |  | > 0.01 |  | > 2.5
21 | CC(C)C(=Nc1cccc(F)c1)OCc1ccc(F)c(Oc2ccc(Cl)cc2)c1 [Compound 375] | 7.9 |  | 0.04 |  | > 0.1 |  | > 0.01 |  | > 2.5
22 | CC(C)C(=Nc1ccc(Cl)c(Cl)c1)OCc1ccc(F)c(Oc2ccccc2)c1 [Compound 376] | 17 |  | 0.02 |  | 0.00037 |  | 0.0061 |  | 0.1
23 | CC(C)C(=Nc1ccc(C(F)(F)F)c(Br)c1)OCc1ccc(F)c(Oc2ccc(Cl)cc2)c1 [Compound 377] | < 100 |  | > 0.1 |  | 0.00062 |  | > 0.01 |  | > 2.5
24 | CC(C)C(=Nc1ccc(Br)cc1)OCc1ccc(F)c(Oc2ccc(Cl)cc2)c1 [Compound 378] | < 100 |  | 0.02 |  | 0.00034 |  | > 0.01 |  | > 2.5
25 | CC(C)C(=Nc1ccc(Br)c(Cl)c1)OCc1cccc(Oc2ccc(Cl)cc2)c1 [Compound 380] | > 100 |  | > 0.1 |  | > 0.1 |  | > 0.01 |  | > 2.5
26 | CC(C)C(=Nc1ccc(Cl)cc1)OCc1ccc(F)c(Oc2ccc(Cl)cc2)c1 [Compound 391] | < 100 |  | 0.035 |  | 0.00029 |  |  |  | > 2.5

Reference: patent US5089623A, “Certain imidate insecticides” (Imperial Chemical Industries Plc, priority 1990, dated 1992)
